Assay results taken from patent US11584758B2, “RIP1K inhibitors” (Rigel Pharmaceuticals, Inc., priority 2020, dated 2023).

Columns and labels:
[1] = target: RIPK1 (Homo sapiens (Human), UniProt Q13546); experiment: RIPK1 ADP-Glo kinase biochemical assay; conditions: statement in words
Description: In this example, compounds of the disclosure were evaluated using a biochemical assay using the ADP-Glo™ technology.
ADP-Glo™ (Promega, Madison, Wis., USA) reagents were thawed at ambient temperature. Kinase Detection Reagent was prepared by mixing kinase detection buffer with the lyophilized kinase detection substrate.
A 3 ml 2× working stock volume of Reaction Kinase Buffer was made containing a final concentration of 100 μM DTT and 4 mM MnCl2.
Components of RIPK1 enzyme (Rigel Pharmaceuticals, South San Francisco, Calif., USA) were thawed on ice. Diluted RIPK1 was prepared in 1× Kinase Reaction Buffer (diluted from 2× buffer) to 31 ng/well.
1.0 ul of diluted compound was added to a 384 well plate in duplicate. […] The final reaction volume was 5.0 μl.
The plate was quickly centrifuged and the reaction was incubated at 30° C. for 30 minutes. Adding 5 μl of ADP-Glo™ terminated the reaction. The plate was quickly centrifuged and the reaction was incubated at room temperature for 40 minutes. Kinase Detection Reagent was then added and incubated at room temperature for 30 minutes. The relative light unit (RLU) of kinase reaction was determined by luminescent (Luminescence 0.1s) using a Wallac Victor2 Luminometer (PerkinElmer, Waltham, Mass., USA).

[2] = Brain free fraction in vitro; format: in vitro ADME; conditions: rodent brain in vitro
Excerpt: (§1) Certain embodiments of the invention provide for compound, compounds or compositions thereof to traverse the blood-brain barrier. […] Brain penetration may be assessed by evaluating brain/plasma ratio (B/P) as measured through in vivo pharmacokinetic studies in rodents and determining free fraction in rodent brain in vitro. […] Without being limited to theory, it is believed that compounds with higher brain/plasma partition ratios may be more pharmacologically active against neurological disorders. Other methods for assessing brain penetration are known to persons of ordinary skill in the art. See, for example, Liu, X. et al., J. Pharmacol. Exp. Therap., 325:349-56, 2008. […]. In this method, the passive membrane permeability (Papp) and the P-gp (P-glycoprotein) substrate efflux potential are determined using a MDCKII-MDR1 cell line as an in vitro model of the effective permeability of a compound through the BBB.
Brain free fraction is a predictive marker for assessing potential for potential therapeutics in the CNS. See, Read K. D.; Braggio S. Assessing brain free fraction in early drug discovery. Expert. Opin. Drug. Metab. Toxicol. 2010, 6, 337-344.
Determination of brain free fraction is known such that those of skill in the art could determine the brain free fraction for additional compounds disclosed herein. See, Srinivas, Nithya et al. “Clinical Pharmacokinetics and Pharmacodynamics of Drugs in the Central Nervous System.” Clinical pharmacokinetics vol. 57, 9 (2018): 1059-1074. doi:10.1007/s40262-018-0632-y.

[3] = Brain/plasma ratio from in vivo pharmacokinetic studies; conditions: rodent, brain and plasma; in vivo pharmacokinetic studies in rodents; read-out: B/P ratio (brain/plasma ratio)
Excerpt: as §1

Chain of RIPK1 (Q13546 whole entry, species assumed): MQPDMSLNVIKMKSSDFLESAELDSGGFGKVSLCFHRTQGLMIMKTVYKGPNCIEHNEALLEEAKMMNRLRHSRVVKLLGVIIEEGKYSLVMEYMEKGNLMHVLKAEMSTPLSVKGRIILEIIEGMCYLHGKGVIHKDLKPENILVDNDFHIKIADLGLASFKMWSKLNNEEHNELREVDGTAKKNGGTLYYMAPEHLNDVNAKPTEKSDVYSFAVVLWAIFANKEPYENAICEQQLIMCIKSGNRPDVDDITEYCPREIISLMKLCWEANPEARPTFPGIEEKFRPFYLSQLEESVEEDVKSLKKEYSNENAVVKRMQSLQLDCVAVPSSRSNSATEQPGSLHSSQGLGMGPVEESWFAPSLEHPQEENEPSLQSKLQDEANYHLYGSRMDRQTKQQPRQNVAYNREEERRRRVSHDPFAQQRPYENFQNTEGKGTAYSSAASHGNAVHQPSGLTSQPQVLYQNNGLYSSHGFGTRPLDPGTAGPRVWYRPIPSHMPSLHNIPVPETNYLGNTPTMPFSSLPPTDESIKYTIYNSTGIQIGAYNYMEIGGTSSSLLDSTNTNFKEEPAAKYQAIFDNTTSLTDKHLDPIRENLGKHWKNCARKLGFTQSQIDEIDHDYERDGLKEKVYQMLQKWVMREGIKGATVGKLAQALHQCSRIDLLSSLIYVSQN

| SMILES | RIP1K inhibitory activity [1] | fraction unbound [2] | Kp [3] |
| --- | --- | --- | --- |
| CN1C(=O)[C@@H](NC(=O)c2cc(Oc3ccccc3)ccn2)COc2cc(Br)cnc21 [Compound I-6, (S)—N-(8-Bromo-5-methyl-4-oxo-2,3,4,5-tetrahydropyrido[3,2-b][1,4]oxazepin-3-yl)-4-phenoxypicolinamide] | exhibiting RIP1K inhibitory activity |  |  |
| CN1C(=O)[C@@H](NC(=O)c2cc(Oc3ccccc3)ccn2)COc2ccc(C#CC(C)(C)O)nc21 [Compound I-18, (S)—N-(7-(3-hydroxy-3-methylbut-1-yn-1-yl)-5-methyl-4-oxo-2,3,4,5-tetrahydropyrido[3,2b][1,4]oxazepin-3-yl)-4-phenoxypicolinamide] |  | 0.027 |  |
| CN1C(=O)[C@@H](NC(=O)c2cc(Oc3cccc(F)c3)ccn2)COc2ccc(C#CC(C)(C)O)nc21 [Compound I-21, (S)-4-(3-fluorophenoxy)-N-(7-(3-hydroxy-3-methylbut-1-yn-1-yl)-5-methyl-4-oxo-2,3,4,5-tetrahydropyrido[3,2-b][1,4]oxazepin-3-yl)picolinamide] |  | 0.0219 |  |
| CN1C(=O)[C@@H](NC(=O)c2cc(Oc3ccccc3)ccn2)COc2ccc(C#CC(O)C(F)(F)F)nc21 (stereo partly drawn) [Compound I-33, N-((3S)-5-methyl-4-oxo-7-(4,4,4-trifluoro-3-hydroxybut-1-yn-1-yl)-2,3,4,5-tetrahydropyrido[3,2-b][1,4]oxazepin-3-yl)-4-phenoxypicolinamide] |  | 0.0057 |  |
| CN1C(=O)[C@@H](NC(=O)c2cc(Oc3ccccc3)ccn2)COc2ccc(C#CC3COC3)nc21 [Compound I-44, (S)—N-(5-methyl-7-(oxetan-3-ylethynyl)-4-oxo-2,3,4,5-tetrahydropyrido[3,2-b][1,4]oxazepin-3-yl)-4-phenoxypicolinamide] |  | 0.017 | 1.6 |
| CN1C(=O)[C@@H](NC(=O)c2cc(Oc3ccccc3)ccn2)COc2ccc(C#CC(C)(N)C(F)(F)F)nc21 (stereo partly drawn) [Compound I-46, N-((3S)-7-(3-Amino-4,4,4-trifluoro-3-methylbut-1-yn-1-yl)-5-methyl-4-oxo-2,3,4,5-tetrahydropyrido[3,2-b][1,4]oxazepin-3-yl)-4-phenoxypicolinamide] |  | 0.0089 |  |
| CN1C(=O)[C@@H](NC(=O)c2cc(Oc3ccccc3)ccn2)CCc2ccc(C#CC(C)(O)C(F)(F)F)nc21 (stereo partly drawn) [Compound I-56, N-((7S)-9-Methyl-8-oxo-2-(4,4,4-trifluoro-3-hydroxy-3-methylbut-1-yn-1-yl)-6,7,8,9-tetrahydro-5H-pyrido[2,3-b]azepin-7-yl)-4-phenoxypicolinamide] |  | 0.0093 |  |
| CN1C(=O)[C@@H](NC(=O)c2cc(Oc3ccccc3)ccn2)CCc2ccc(C#CC3COC3)nc21 [Compound I-58, (S)—N-(9-Methyl-2-(oxetan-3-ylethynyl)-8-oxo-6,7,8,9-tetrahydro-5H-pyrido[2,3-b]azepin-7-yl)-4-phenoxypicolinamide] |  | 0.0184 | 0.44 |
